Structures can show the parent of a compound that is named as a salt. Where two headings read alike, the source gives them in different places.
Key:
nasal polyps = conditions: cited from earlier work
dogs = conditions: cited from earlier work
cats = conditions: same or larger amounts into the sinus; cited from earlier work
[1] = 4-way crossover study of metoclopramide hydrochloride (nasal, oral, intramuscular) in volunteer human subjects; type: in vivo; conditions: for Tmax: human, in vivo, Time to Peak
Protocol: A 4-way crossover study was conducted in eight volunteer human subjects to compare the effects of the nasal administration of 5 and 10 mg of metoclopramide hydrochloride in a gel formulation, 10 mg of the same agent in an oral formulation and 5 mg of the product intramuscularly. The nasal formulation had the following composition: […]
______________________________________
BENZYL ALCOHOL N.F. 1.500 ml
SODIUM CHLORIDE U.S.P. 0.800 grams
ACETIC ACID, N.F. 0.320 grams
SODIUM ACETATE U.S.P. 0.077 grams
SORBITOL SOLUTION U.S.P.
METOCLOPRAMIDE HCL 5.000 grams
WATER PURIFIED U.S.P. q.s.
The oral and intramuscular compositions were commercial formulations available from A.G. Robbins Pharmaceutical Company, Richmond, Va., under the name Reglan.
The study was extended to dosage levels of 20 mg and 40 mg by the intranasal route using the same compositions.

in vivo = assay: in vivo; design: species or system Sprague-Dawley male rats; conditions: rat
Protocol: Two Sprague-Dawley male rats each weighing 250 to 300 grams, anesthetized using sodium pentobarbital (50 mg/Kg of body weight), were administered nasally by micropipet a dosage level of 15 mg/Kg of body weight of the following composition:
216 mg metoclopramide.HCL (MCP.HCL)
895.2 mg polyethylene glycol (PEG 400)
The femoral artery was cannulated with heparinized polyethylene tubing (Clay Adams, PE-50) and blood samples were removed at the times indicated in Table 1.
The samples were analyzed by high pressure liquid chromatography (HPLC) as follows:
Column: Silica Column (4.6×250 mm)
Mobile Phase: CH2 Cl2 : MeOH:NH4 OH=90:10:0.5
Plasma (0.3 ml) was placed in a test tube and 0.1 ml of 1N NaOH was added. Four ml of methylene chloride was then added and the mixture shaken for 10 minutes on a reciprocal shaker, centrifuged for 3 minutes in an IEC clinical centrifuge and the upper layer removed by aspiration. A 3.0 ml aliquot of the methylene chloride layer was transferred to a second tube and evaporated to dryness with a streak of nitrogen gas. The resulting residue was then dissolved in 0.1 to 0.5 ml of mobile phase and submitted to HPLC analysis. […]

nausea and vomiting = assay: Intranasal metoclopramide for control of nausea and vomiting in cancer patients; type: in vivo, human; conditions: intranasal 40 mg every four hours
Protocol: The patient was a person with Stage IV ovarian cancer.
Because of repeated nausea and vomiting due to bowel obstruction and other factors, intranasal metoclopramide at 40 mg per dose every four hours was employed for control of symptoms.

For `CC1(C)O[C@@H]2C[C@H]3[C@@H]4C[C@H](F)C5=CC(=O)C=C[C@]5(C)[C@H]4[C@@H](O)C[C@]3(C)[C@]2(C(=O)CO)O1` [flunisolide], the topical antiinflammatory activity (nasal polyps) is listed as “excellent topical antiinflammatory”, the absorption (nasal polyps; nasal topical) is listed as “not rapidly absorbed” and the systemic activity (nasal polyps; nasal topical) is listed as “minimal systemic activity”.

In the case of `CN1CCCC1c1cccnc1` (centres unmarked) [nicotine], the pressor response (dogs; injection of 1 mg) is listed as “immediate and marked pressor response”, the pressor response (dogs; same or larger amounts into the sinus) is listed as “little or no effect” and the pressor response (cats) is listed as “little or no effect”.

In the case of `CCN(CC)CCNC(=O)c1cc(Cl)c(N)cc1OC` [metoclopramide hydrochloride], the pharmacokinetic profiles ([1]; 10 mg nasal, 10 mg P.O. and 5 mg I.M. compared) is reported as “statistically identical”, the local toxicity ([1]; during or after the study, 5 and 10 mg nasal, 10 mg P.O., 5 mg I.M.) is reported as “No evidence of local toxicity” and the “local or systemic toxicity” value ([1]; extended study, 20 mg and 40 mg intranasal) is reported as “no evidence of either local or systemic toxicity”. It also gave a Tmax [1] of 1.34 h, a Tmax ([1]; im) of 1.53 h and a Tmax ([1]; po) of 1.62 h. The “maintenance of high levels” value (in vivo) was “maintained for a longer period of time”, the “time to achieve maximum levels” value (in vivo) was “extended” and the Tmax (in vivo; 15 mg/kg) was 0.25 h. For the same molecule, the Concentration (in vivo; 15 mg/kg, 0.25 h) was 1.61 ± 0.23 ug/ml plasma, the Concentration (in vivo; 15 mg/kg, 0.5 h) was 1.55 ± 0.18 ug/ml plasma and the Concentration (in vivo; 15 mg/kg, 0.75 h) was 1.30 ± 0.18 ug/ml plasma. The Concentration (in vivo; 15 mg/kg, 1 h) was 1.26 ± 0.3 ug/ml plasma, the Concentration (in vivo; 15 mg/kg, 1.25 h) was 1.62 ± 0.17 ug/ml plasma and the Concentration (in vivo; 15 mg/kg, 1.5 h) was 1.63 ± 0.18 ug/ml plasma. The Concentration (in vivo; 15 mg/kg, 2 h) was 1.55 ± 0.26 ug/ml plasma, the Concentration (in vivo; 15 mg/kg, 4 h) was 1.29 ± 0.28 ug/ml plasma and the concentration at 0.25 h (in vivo; 15 mg/kg, Concentration) was 850 ± 120 ng/mL. The concentration at 0.5 h (in vivo; 15 mg/kg, Concentration) was 1370 ± 210 ng/mL, the concentration at 0.75 h (in vivo; 15 mg/kg, Concentration) was 1510 ± 180 ng/mL and the concentration at 1 h (in vivo; 15 mg/kg, Concentration) was 1610 ± 50 ng/mL. For the same molecule, the concentration at 1.25 h (in vivo; 15 mg/kg, Concentration) was 1110 ± 340 ng/mL, the concentration at 1.5 h (in vivo; 15 mg/kg, Concentration) was 1040 ± 350 ng/mL and the concentration at 2 h (in vivo; 15 mg/kg, Concentration) was 1100 ± 380 ng/mL. The concentration at 2.5 h (in vivo; 15 mg/kg, Concentration) was 1550 ± 210 ng/mL, the concentration at 3 h (in vivo; 15 mg/kg, Concentration) was 1090 ± 360 ng/mL and the concentration at 4 h (in vivo; 15 mg/kg, Concentration) was 940 ng/mL.

With `CCN(CC)CCNC(=O)c1cc(Cl)c(N)cc1OC` [metoclopramide] the benefit from treatment (nausea and vomiting; five more cancer patients refractory to other antinausea treatments) was “All patients benefited from the treatment” and the control of nausea (nausea and vomiting; one patient, Stage IV ovarian cancer with bowel obstruction) was “contained their nausea between occasional bouts of vomiting”.

Reference: patent US4749700A, “Novel methods of administering antihistamines, antinausea and antiemetic pharmaceutical agents and novel dosage forms containing same” (priority 1987, dated 1988)
